Molecular target: T1, TYK2-JH2 (Homo sapiens, UniProt P29597)
T1 construct: TYK JH2 enzyme mix (ChemPartner: CP20210818A-BV); purchased ChemPartner CP20210818A-BV
Experiment: TYK2-JH2 HTRF binding assay (ligand efficiency)
Settings: calculated (Equation 1) from IC50 of the TYK-JH2 binding assay
Method: The following example describes the TYK2-JH2 HTRF binding assay used to determine the ligand efficiency of the TYK2 inhibitors.
To calculate ligand efficiency, Equation 1 is applied: […]
in which IC50 comes from the binding assay used to determine compound potency.
TYK JH2 enzyme mix (ChemPartner: CP20210818A-BV), tracer (ChemPartner: CP-0029472-051) and mAb Anti-6HIS Tb cryptate Gold (Cisbio: Cat No. 61HI2TLA) mix were prepared in assay buffer (10 mM MgCl2, 20 mM HEPES pH 7.5, 0.01% Triton X-100, 1 mM DTT). Compounds diluted in DMSO (Final Concentrations 0.1 to 0.000005 [μM]) and enzyme mix (0.5 nM Final Concentration) were added to 384 well plates, briefly centrifuged and incubated at room temperature for 10 minutes. After incubation, tracer mix (Tracer-35 nM final concentration); (MAb Anti-6HIS Tb cryptate Gold-0.5X final)) was added, briefly centrifuged then incubate at room temperature 60 minutes. After incubation, plates were read by Envision TR-FRET (Ex340/Em495/520) protocol (PerkinElmer-Envision 2104 multilabel plate reader).

T1 sequence (P29597 589-875 limits assumed): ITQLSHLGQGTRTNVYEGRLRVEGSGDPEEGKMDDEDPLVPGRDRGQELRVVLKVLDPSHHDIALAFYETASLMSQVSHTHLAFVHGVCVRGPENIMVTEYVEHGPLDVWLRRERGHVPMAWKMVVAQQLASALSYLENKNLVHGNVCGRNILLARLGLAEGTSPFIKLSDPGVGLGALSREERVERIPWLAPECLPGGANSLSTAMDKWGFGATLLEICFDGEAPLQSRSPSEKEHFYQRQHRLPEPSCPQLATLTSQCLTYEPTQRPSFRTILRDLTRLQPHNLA

| Compound | Ligand Efficiency |
| --- | --- |
| CC(c1ccc(Nc2cc(Nc3ncccc3S(C)(=O)=O)ncn2)nc1)N1CC2(CC(F)C2)C1 (stereo in doubt) [Compound 10, N^4-(5-((1R)-1-(6-fluoro-2-azaspiro[3.3]heptan-2-yl)ethyl)pyridin-2-yl)-N^6-(3-(methylsulfonyl)pyridin-2-yl)pyrimidine-4,6-diamine] | ††† (†††: >0.39) |
| CC(c1ccc(Nc2cc(Nc3ncccc3S(C)(=O)=O)ncn2)nc1)N1CCCC1 (stereo in doubt) [Compound 15, (R)—N^4-(3-(methylsulfonyl)pyridin-2-yl)-N^6-(5-(1-(pyrrolidin-1-yl)ethyl)pyridin-2-yl)pyrimidine-4,6-diamine] | ††† (†††: >0.39) |
| CC(NC1COC1)c1ccc(Nc2cc(Nc3ccccc3S(C)(=O)=O)ncn2)nc1 (stereo in doubt) [Compound 40, (R)—N^4-(2-(methylsulfonyl)phenyl)-N^6-(5-(1-(oxetan-3-ylamino)ethyl)pyridin-2-yl)pyrimidine-4,6-diamine] | ††† (†††: >0.39) |
| CS(=O)(=O)c1cccnc1Nc1cc(Nc2ccc(N3CCN(C4CC4)CC3)cn2)ncn1 [Compound 7, N^4-(5-(4-cyclopropylpiperazin-1-yl)pyridin-2-yl)-N^6-(3-(methylsulfonyl)pyridin-2-yl)pyrimidine-4,6-diamine] | ††† (†††: >0.39) |
| CS(=O)(=O)c1cccnc1Nc1cc(Nc2ccc3c(n2)CC[C@@H]3N2CC3(COC3)C2)ncn1 [Compound 9, N^4-((5S)-5-(2-oxa-6-azaspiro[3.3]heptan-6-yl)-6,7-dihydro-5H-cyclopenta[b]pyridin-2-yl)-N^6-(3-(methylsulfonyl)pyridin-2-yl)pyrimidine-4,6-diamine] | ††† (†††: >0.39) |
| C[C@@H](c1ccc(Nc2cc(Nc3ncc(Cl)cc3S(C)(=O)=O)ncn2)nc1)N1CC2(COC2)C1 [Compound 14, (S)—N^4-(5-(1-(2-oxa-6-azaspiro[3.3]heptan-6-yl)ethyl)pyridin-2-yl)-N^6-(5-chloro-3-(methylsulfonyl)pyridin-2-yl)pyrimidine-4,6-diamine] | ††† (†††: >0.39) |
| CS(=O)(=O)c1cccnc1Nc1cc(Nc2cccc(C(F)(F)F)n2)ncn1 [Compound 19, N^4-(3-(methylsulfonyl)pyridin-2-yl)-N^6-(6-(trifluoromethyl)pyridin-2-yl)pyrimidine-4,6-diamine] | ††† (†††: >0.39) |
| C[C@H]1CN(C)CCN1c1ccc(Nc2cc(Nc3ncccc3S(C)(=O)=O)ncn2)nc1 [Compound 20, (S)—N^4-(5-(2,4-dimethylpiperazin-1-yl)pyridin-2-yl)-N^6-(3-(methylsulfonyl)pyridin-2-yl)pyrimidine-4,6-diamine] | ††† (†††: >0.39) |
| CC1(Nc2ccc(Nc3cc(Nc4ncccc4S(C)(=O)=O)ncn3)nc2)COC1 [Compound 21, N^4-(5-((3-methyloxetan-3-yl)amino)pyridin-2-yl)-N^6-(3-(methylsulfonyl)pyridin-2-yl)pyrimidine-4,6-diamine] | ††† (†††: >0.39) |
| CC(c1ccc(Nc2cc(Nc3ncccc3S(C)(=O)=O)ncn2)nc1)N1CC(F)C1 (centres unmarked) [Compound 22, N^4-(5-(1-(3-fluoroazetidin-1-yl)ethyl)pyridin-2-yl)-N^6-(3-(methylsulfonyl)pyridin-2-yl)pyrimidine-4,6-diamine] | ††† (†††: >0.39) |
| Cc1cc(Nc2cc(Nc3ncccc3S(C)(=O)=O)ncn2)ncc1NC1(C)COC1 [Compound 23, N^4-(4-methyl-5-((3-methyloxetan-3-yl)amino)pyridin-2-yl)-N^6-(3-(methylsulfonyl)pyridin-2-yl)pyrimidine-4,6-diamine] | ††† (†††: >0.39) |
| C[C@@H](c1ccc(Nc2cc(Nc3ncccc3S(C)(=O)=O)ncn2)nc1)N1C[C@H]2COC[C@H]2C1 [Compound 25, N^4-(3-(methylsulfonyl)pyridin-2-yl)-N^6-(5-(1-((3aR,6aS)-tetrahydro-1H-furo[3,4-c]pyrrol-5 (3H)-yl)ethyl)pyridin-2-yl)pyrimidine-4,6-diamine] | ††† (†††: >0.39) |
| CS(=O)(=O)c1ccccc1Nc1cc(Nc2ccc3c(n2)CCCC3N2CC3(CCOCC3)C2)ncn1 (centres unmarked) [Compound 27, N^4-(5-(7-oxa-2-azaspiro[3.5]nonan-2-yl)-5,6,7,8-tetrahydroquinolin-2-yl)-N^6-(2-(methylsulfonyl)phenyl)pyrimidine-4,6-diamine] | † (†: <0.37) |
| C[C@@H](c1ccc(Nc2cc(Nc3ncccc3S(C)(=O)=O)ncn2)nc1)N1CC2(CCOC2)C1 [Compound 32, (S)—N^4-(5-(1-(6-oxa-2-azaspiro[3.4]octan-2-yl)ethyl)pyridin-2-yl)-N^6-(3-(methylsulfonyl)pyridin-2-yl)pyrimidine-4,6-diamine] | ††† (†††: >0.39) |
| CC(NC1CC(F)(F)C1)c1ccc(Nc2cc(Nc3ncccc3S(C)(=O)=O)ncn2)nc1 (centres unmarked) [Compound 35, N^4-(5-(1-(3,3-difluorocyclobutylamino)ethyl)pyridin-2-yl)-N^6-(3-(methylsulfonyl)pyridin-2-yl)pyrimidine-4,6-diamine] | ††† (†††: >0.39) |
| CC1(CNc2ccc(Nc3cc(Nc4ncccc4S(C)(=O)=O)ncn3)nc2)COC1 [Compound 36, N^4-(5-(((3-methyloxetan-3-yl)methyl)amino)pyridin-2-yl)-N^6-(3-(methylsulfonyl)pyridin-2-yl)pyrimidine-4,6-diamine] | ††† (†††: >0.39) |

| Compound | Ligand Efficiency |
| --- | --- |
| CS(=O)(=O)c1cccnc1Nc1cc(Nc2ccc(NC3CC(F)(F)C3)cn2)ncn1 [Compound 37, N^4-(5-(3,3-difluorocyclobutylamino)pyridin-2-yl)-N^6-(3-(methylsulfonyl)pyridin-2-yl)pyrimidine-4,6-diamine] | ††† (†††: >0.39) |
| CS(=O)(=O)c1cccnc1Nc1cc(Nc2ccc(C(=O)NC3CC(F)(F)C3)cn2)ncn1 [Compound 38, N-(3,3-difluorocyclobutyl)-6-(6-(3-(methylsulfonyl)pyridine-2-ylamino)pyrimidin-4-ylamino) nicotinamide] | ††† (†††: >0.39) |
| CS(=O)(=O)c1ccccc1Nc1cc(Nc2ccc(N3CCOCC3)cn2)ncn1 [Compound 42, N^4-(2-(methylsulfonyl)phenyl)-N^6-(5-morpholinopyridin-2-yl)pyrimidine-4,6-diamine] | ††† (†††: >0.39) |
| Cc1ccnc(Nc2cc(Nc3ccccc3C(N)=O)ncn2)c1 [Compound 45, 2-((6-((4-methylpyridin-2-yl)amino)pyrimidin-4-yl)amino)benzamide] | ††† (†††: >0.39) |
| Cc1cccc(Nc2cc(Nc3ccccc3C(N)=O)ncn2)n1 [Compound 46] | ††† (†††: >0.39) |
| Cc1cnnc(Nc2cc(Nc3ccccc3C(N)=O)ncn2)c1 [Compound 47, 2-((6-((5-methylpyridazin-3-yl)amino)pyrimidin-4-yl)amino)benzamide] | ††† (†††: >0.39) |
| Cc1nccc(Nc2cc(Nc3ccccc3C(N)=O)ncn2)n1 [Compound 48, 2-((6-((2-methylpyrimidin-4-yl)amino)pyrimidin-4-yl)amino)benzamide] | ††† (†††: >0.39) |
| Cc1cncc(Nc2cc(Nc3ccccc3C(N)=O)ncn2)n1 [Compound 49, 2-(6-(6-methylpyrazin-2-ylamino)pyrimidin-4-ylamino)benzamide] | ††† (†††: >0.39) |
| Cc1cccc(Nc2cc(Nc3cccnc3C(N)=O)ncn2)n1 [Compound 50, 3-((6-((6-methylpyridin-2-yl)amino)pyrimidin-4-yl)amino) picolinamide] | ††† (†††: >0.39) |
| Cc1cccc(Nc2cc(Nc3ccncc3C(N)=O)ncn2)n1 [Compound 51, 4-((6-((6-methylpyridin-2-yl)amino)pyrimidin-4-yl)amino) nicotinamide] | ††† (†††: >0.39) |
| Cc1cccc(Nc2cc(Nc3ncccc3C(N)=O)ncn2)n1 [Compound 52, 2-((6-((6-methylpyridin-2-yl)amino)pyrimidin-4-yl)amino) nicotinamide] | ††† (†††: >0.39) |
| Cc1cccc(Nc2cc(Nc3ccccc3NS(C)(=O)=O)ncn2)n1 [Compound 53, N-(2-(6-(6-methylpyridin-2-ylamino)pyrimidin-4-ylamino)phenyl) methanesulfonamide] | ††† (†††: >0.39) |
| C[C@H]1COCCN1c1ccc(Nc2cc(Nc3ccccc3S(C)(=O)=O)ncn2)nc1 [Compound 54, (S)—N^4-(5-(3-methylmorpholino)pyridin-2-yl)-N^6-(2-(methylsulfonyl)phenyl)pyrimidine-4,6-diamine] | † (†: <0.37) |
| Cc1cccc(Nc2cc(Nc3ccccc3S(C)(=O)=O)nc(C)n2)n1 [Compound 56, 2-methyl-N^4-(6-methylpyridin-2-yl)-N^6-(2-(methylsulfonyl)phenyl)pyrimidine-4,6-diamine] | † (†: <0.37) |
| Cc1cccc(Nc2cc(Nc3ccccc3S(C)(=O)=O)nc(N)n2)n1 [Compound 57, N^4-(6-methylpyridin-2-yl)-N^6-(2-(methylsulfonyl)phenyl)pyrimidine-2,4,6-triamine] | ††† (†††: >0.39) |
| Cc1ccnc(Nc2cc(Nc3ccccc3C(N)=O)ncn2)n1 [Compound 58, 2-(6-(4-methylpyrimidin-2-ylamino)pyrimidin-4-ylamino)benzamide] | ††† (†††: >0.39) |

— US20240425484A1, “INHIBITORS OF TYK2” (Atomwise Inc., priority 2023, published 2024)
